In patent US8076329B2, “Histamine H3-receptor ligands and their therapeutic applications” (Bioprojet, priority 2005, dated 2011) one finds IC50, melting point and Ki data, which are given here for 32 molecules.

The structures appear in SMILES notation. Several values for one entry are separate records, joined by “and”; a condition that tells them apart may be missing. Equal values may be shown once. Where a name gives a salt, the structure may show the parent alone.

In one data set the target is CYP2D6 (Homo sapiens, UniProt P10635). Kind of data set: Cytochrome inhibition, fluorometric microtiter plate assay. Format: in vitro ADME. Particulars: CYP2D6 cytochrome inhibition (IC50, concentrations in μM for 50% inhibition), human recombinant CYP2D6, substrate AMMC, compounds of the invention. As for the experimental part: (§1) The ability of drug in human to inhibit the catalytic activity of cytochrome P-450 isoforms was assayed using microtiter plate-based, fluorometric assays for the activities of the five human major CYP forms. Inhibition potential was determined in vitro after incubation of fluorescent model substrates over various incubation time with human recombinant cytochrome isoforms in the absence or in presence of increasing concentrations of test molecules (from 1 nM to 100 μM), in comparison with specific CYP isoform inhibitors.
Sequence of CYP2D6 (P10635 whole entry, canonical isoform): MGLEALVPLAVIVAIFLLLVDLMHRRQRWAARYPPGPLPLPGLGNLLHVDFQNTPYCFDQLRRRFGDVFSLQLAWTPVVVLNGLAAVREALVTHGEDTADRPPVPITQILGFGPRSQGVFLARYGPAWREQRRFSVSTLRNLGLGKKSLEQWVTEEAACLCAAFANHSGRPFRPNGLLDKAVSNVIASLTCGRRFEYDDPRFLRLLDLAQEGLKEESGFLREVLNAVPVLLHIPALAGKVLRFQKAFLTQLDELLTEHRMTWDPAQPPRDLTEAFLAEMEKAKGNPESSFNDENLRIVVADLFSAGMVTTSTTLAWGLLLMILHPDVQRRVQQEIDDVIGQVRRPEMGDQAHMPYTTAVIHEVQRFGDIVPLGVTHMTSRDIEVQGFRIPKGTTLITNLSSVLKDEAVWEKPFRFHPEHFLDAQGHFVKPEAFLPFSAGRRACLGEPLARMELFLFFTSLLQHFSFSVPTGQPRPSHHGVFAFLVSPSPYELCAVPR
(§2) Incubation of drug was carried out at 37° C.±0.5° C. under agitation in the presence of human recombinant cytochrome P-450 isoforms and a NADPH generating system. The incubation conditions for each cytochrome isoform were as follows: […]

In the next data set the target is CYP3A4 (Homo sapiens, UniProt P08684). Described as above. It is filed as in vitro ADME. Particulars: CYP3A4 cytochrome inhibition (IC50, concentrations in μM for 50% inhibition), human recombinant CYP3A4, substrate BFC, compounds of the invention. As for the experimental part: as §1, §2
Sequence of CYP3A4 (P08684 whole entry): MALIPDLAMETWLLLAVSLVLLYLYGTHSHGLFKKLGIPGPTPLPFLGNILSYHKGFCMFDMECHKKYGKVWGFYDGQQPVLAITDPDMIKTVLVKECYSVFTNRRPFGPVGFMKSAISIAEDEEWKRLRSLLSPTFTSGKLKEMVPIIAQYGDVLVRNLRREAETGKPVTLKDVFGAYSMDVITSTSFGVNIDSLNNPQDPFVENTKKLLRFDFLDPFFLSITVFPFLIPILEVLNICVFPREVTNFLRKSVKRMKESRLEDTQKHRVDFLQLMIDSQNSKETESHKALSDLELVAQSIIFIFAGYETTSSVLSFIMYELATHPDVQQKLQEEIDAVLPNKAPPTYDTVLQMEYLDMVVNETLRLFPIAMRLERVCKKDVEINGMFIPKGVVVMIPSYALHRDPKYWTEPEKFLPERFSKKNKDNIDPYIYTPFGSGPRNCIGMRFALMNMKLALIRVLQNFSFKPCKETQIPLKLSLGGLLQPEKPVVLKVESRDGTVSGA
Data set [1] deals with human histamine H3 receptors (Homo sapiens, UniProt Q9Y5N1). Kind of data set: H3 binding ([125I]iodoproxyfan displacement on membranes). To be noted: compounds of the invention; membranes expressing human H3 receptors. As for the experimental part: Membranes expressing human histamine H3 receptors were incubated 1 hour at room temperature in binding buffer containing 50 mM Na2HPO4/KH2PO4 pH 7.5 in a final volume of 200 μl. […] The reaction was stopped by rapid filtration through GF/B filters (pre-soaked for 2 hours with 0.3% polyethyleneimine) followed by 3 ice cold binding buffer washes. The filter-bound radioactivity was measured in a liquid scintillation counter with 50 μl of scintillation fluid.
Sequence of human histamine H3 receptors (Q9Y5N1 whole entry): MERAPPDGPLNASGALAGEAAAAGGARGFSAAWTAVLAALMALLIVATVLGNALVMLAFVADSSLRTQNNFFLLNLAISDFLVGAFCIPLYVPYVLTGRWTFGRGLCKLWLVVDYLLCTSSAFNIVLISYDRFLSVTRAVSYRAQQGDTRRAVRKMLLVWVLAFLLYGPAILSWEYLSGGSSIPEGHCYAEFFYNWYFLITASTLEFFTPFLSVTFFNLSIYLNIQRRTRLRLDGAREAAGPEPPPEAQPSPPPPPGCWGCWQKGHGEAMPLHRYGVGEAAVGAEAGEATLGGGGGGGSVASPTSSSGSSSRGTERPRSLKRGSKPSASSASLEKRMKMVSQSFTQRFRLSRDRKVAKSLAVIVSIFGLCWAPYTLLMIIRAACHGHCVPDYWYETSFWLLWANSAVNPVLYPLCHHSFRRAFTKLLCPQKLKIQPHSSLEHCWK

The mark [2] stands for this setting: human, recombinant human CYP3A4, probe BFC.

As usually defined, the IC50 is the concentration that inhibits the measured activity by half. Broadly, the melting point is the temperature, or range, at which the solid turns liquid. As for `Cc1cc(-c2ccc(OCCCN3CCC[C@H](C)C3)cc2)ccn1.O=C(O)C(=O)O.O=C(O)C(=O)O` [Example 59, 2-methyl-4-(4-{3-[(3S)-3-methylpiperidin-1-yl]propoxy}phenyl)pyridine], the melting point amounted to 97 °C. The concentration for half-maximal inhibition (IC50) on CYP2D6 was above 10 µM. Also, the IC50 on CYP3A4 was above 10 µM.

The Ki is a dissociation constant, usually derived from enzyme kinetics or from competition with a known ligand. A lower Ki goes with higher affinity. Consider `CC1CCCN1CCCOc1ccc([C@H]2CC[C@H](O)CC2)cc1` (stereo partly drawn) [Example 66, 1-{3-[trans-4-(4-hydroxycyclohexyl)phenoxy]propyl}-2-methylpyrrolidine], for which the IC50 on CYP2D6 and at CYP3A4 was above 10 µM throughout. The inhibition constant (Ki) in data set [1] was found to be 0.83 nM.

With `c1cc(-c2ccc(OCCCN3CCCCC3)cc2)ccc1CCCN1CCCCC1` (as salt: oxalate) [Example 48], the melting point is 130 °C.

As to `Cc1ccccc1-c1ccc(OCCCN2CCCCC2)cc1` [Example 28, 1-{3-[(2′-methylbiphenyl-4-yl)oxy]propyl}piperidine], the concentration for half-maximal inhibition (IC50) is 10 µM at CYP2D6 (human, recombinant human CYP2D6, probe AMMC) and 10 µM on CYP3A4 (setting [2]). The Ki in data set [1] stood at 0.53 nM.

Take `O=C(c1ccccc1)c1ccc(OCCCN2CCCCC2)cc1` [Example 3]: the IC50 turned out to be 32 µM on CYP2D6 and 18 µM at CYP3A4. The same molecule came in with a Ki in data set [1] of 1.1 nM.

`C[C@H]1CCCN(CCCOc2ccc(-c3ccnc(OCCCN4CCCCC4)c3)cc2)C1` [Example 58, 2-(3-piperidinopropoxy)-4-(4-{3-[(3S)-3-methylpiperidin-1-yl]propoxy}phenyl)-pyridine]: the half-maximal inhibitory concentration (IC50) at CYP2D6 and on CYP3A4 was above 10 µM throughout. Moreover, in data set [1], the affinity, expressed as Ki, was 0.061 nM.

Turning to `CCCC(O)(CCC)c1ccc(OCCCN2CCCCC2)cc1` [Example 7, 1-{3-[4-(1-hydroxy-1-propylbutyl)phenoxy]propyl}piperidine], the IC50 turned out to be 39 µM on CYP2D6 and 4 µM at CYP3A4. For the same molecule, the Ki in data set [1] was determined as 0.74 nM.

Molecule `O=C(O)C(=O)O.O=C(O)C(=O)O.c1cc(C2=NCCCC2)ccc1OCCCN1CCCCC1` [Example 15, 6-[4-(3-piperidinopropoxy)phenyl]-2,3,4,5-tetrahydropyridine] yielded a melting point of 104 °C. Also, the half-maximal inhibitory concentration (IC50) on CYP2D6 was above 10 µM. Besides, the IC50 at CYP3A4 was found to be 46 µM.

Turning to `C[C@H]1CCCN(CCCOc2ccc(C3CCC(N4CCOCC4)CC3)cc2)C1` (single isomer, unassigned) [Example 41, dihydrochloride], the IC50 at CYP2D6 was > 10 µM and 14 µM; at CYP3A4, > 1 µM and 13 µM. The same molecule came in with a Ki in data set [1] of 0.13 nM.

For `C[C@H]1C[C@H](C)CN(CCCOc2ccc(C(=O)N(C)C)cc2)C1` (relative stereo) [Example 1, trans-1-{3-[4-(N,N-dimethylcarbamoyl)phenoxy]propyl}-3,5-dimethylpiperidine], the concentration for half-maximal inhibition (IC50) at CYP2D6 was above 10 µM; on CYP3A4, 32 µM. In data set [1], this molecule yielded a Ki of 2.9 nM.

Turning to `C[C@H]1C[C@H](C)CN(CCCOc2ccc([C@H]3CC[C@H](N(C)C)CC3)cc2)C1` (as salt: hydrochloride) [Example 12, (3S,5S)-1-{3-[4-(trans-4-dimethylaminocyclohex-1-yl)phenoxy]propyl}-3,5-dimethylpiperidine], the melting point was 240 °C.

Consider `c1cc(-c2ccc(OCCCN3CCCCC3)cc2)ccc1OCCCN1CCCCC1` [Example 35, di-1,1′-{(biphenyl-4,4′-diyl)bis[oxy(propan-1,3-diyl)]}piperidine], for which the IC50 at CYP2D6 turned out to be 71 µM; on CYP3A4 it was 5 µM. Besides, in data set [1], affinity was put at a Ki of 0.1 nM.

For the molecule `Cc1cc(-c2ccc(OCCCN3CCC[C@H](C)C3)cc2)cc[n+]1[O-]` [Example 54, 2-methyl-4-(4-{3-[(3S)-3-methylpiperidin-1-yl]propoxy}phenyl)pyridine 1-oxide], the IC50 is above 10 µM at CYP2D6 and above 1 µM at CYP3A4. Further, in data set [1], the inhibitory constant (Ki) came out at 0.4 nM.

Take `c1cc(-c2ccc(OCCCN3CCCCC3)cc2)cs1` [Example 29, 1-{3-[4-(3-thienyl)phenoxy]propyl}piperidine]: the IC50 was 24 µM at CYP2D6 and above 100 µM on CYP3A4. In data set [1], this molecule displayed a Ki of 0.88 nM.

For the molecule `c1cncc(-c2ccc(OCCCN3CCCCC3)cc2)c1` [Example 32, 1-{3-[4-(3-pyridyl)phenoxy]propyl}piperidine], the half-inhibitory concentration (IC50) on CYP2D6 was found to be 7 µM; at CYP3A4 it was 9 µM. In addition, the Ki in data set [1] turned out to be 0.22 nM.

The molecule `CCN1CCCC(OCc2ccc(OCCCN3CCCCC3)cc2)C1` (stereo not shown) [Example 70, 1-ethyl-3-[4-(3-piperidinopropoxy)benzyloxy]piperidine] returned an inhibition constant Ki in data set [1] of 0.35 nM.

The molecule `C[C@@H]1C[C@@H](C)CN(CCCOc2ccc(C3=NCCC3)cc2)C1` (relative stereo) [Example 17, trans-1-{3-[4-(4,5-dihydro-3H-pyrrol-2-yl)phenoxy]propyl}-3,5-dimethylpiperidine] had an inhibitory constant (Ki) in data set [1] of 0.43 nM.

Turning to `CN1CCC(CCOCc2ccc(OCCCN3CCCCC3)cc2)CC1` [Example 69, 1-methyl-4-{2-[4-(3-piperidinopropoxy)benzyloxy]ethyl}piperidine], the IC50 on CYP2D6 and at CYP3A4 was above 10 µM each time. The affinity in data set [1], expressed as Ki, was 1.19 nM.

Regarding `C[C@H]1C[C@H](C)CN(CCCOc2ccc(-c3ccccc3)cc2)C1` [Example 23, (3S,5S)-1-{3-[(biphenyl-4-yl)oxy]propyl}-3,5-dimethylpiperidine], the IC50 on CYP2D6 was found to be 13 µM; at CYP3A4, 3 µM.

For the molecule `C[C@H]1CCCN(CCCOc2ccc(-c3ccncc3)cc2)C1` [Example 39, (3S)-3-methyl-1-{3-[4-(4-pyridyl)phenoxy]propyl}piperidine], the results for the 50% inhibitory concentration (IC50) on CYP2D6 and at CYP3A4 were 6 µM and 11 µM, respectively.

`C[C@H]1CCCN(CCCOc2ccc([C@H]3CC[C@H](O)CC3)cc2)C1` [Example 62, (3S)-1-{3-[4-(4-hydroxycyclohexyl)phenoxy]propyl}-3-methylpiperidine] registered a Ki in data set [1] of 0.554 nM.

As for `c1ccc(COc2ccc(OCCCN3CCCCC3)cc2)cc1` [Example 13, 1-{3-[4-(benzyloxy)phenoxy]propyl}piperidine], the IC50 on CYP2D6 turned out to be 23 µM; at CYP3A4, 16 µM.

Take `CC1CCCN(CCCOc2ccc(C(C)(C)O)cc2)C1` (racemic) [Example 6, (RS)-1-{3-[4-(1-hydroxy-1-methylethyl)phenoxy]propyl}-3-methylpiperidine]: the IC50 on CYP2D6 and on CYP3A4 was above 10 µM each time.

On to `C=CCC(O)(CC=C)c1ccc(OCCCN2CCCCC2)cc1` [Example 9, 1-{3-[4-(1-hydroxy-1-allylbut-3-enyl)phenoxy]propyl}piperidine], for which the IC50 on CYP2D6 was determined as 8 µM; at CYP3A4, 3 µM.

For `c1cc(-c2ccc(OCCCN3CCOCC3)cc2)ccc1OCCCN1CCCCC1` [Example 36, 4-(3-{[4′-(3-piperidinopropoxy)biphenyl-4-yl]oxy}propyl)morpholine], the IC50 on CYP2D6 is above 10 µM; at CYP3A4, 3 µM.

As for `C[C@H]1CCCN(CCCOc2ccc([C@H]3CC[C@H](O)CC3)cc2)C1` [Example 61, (3S)-1-{3-[trans-4-(4-hydroxycyclohexyl)phenoxy]propyl}-3-methylpiperidine], the IC50 on CYP2D6 and on CYP3A4 was above 10 µM throughout.

For the molecule `CN1CCC(COCc2ccc(OCCCN3CCCCC3)cc2)CC1` [Example 68, 1-methyl-4-[4-(3-piperidinopropoxy)benzyloxymethyl]piperidine], the IC50 on CYP2D6 and on CYP3A4 was above 10 µM each time.

With `C(=C/c1ccc(-c2ccc(OCCCN3CCCCC3)cc2)cc1)/CN1CCCCC1` [Example 45, (Z)-1-(3-{[4′-(3-piperidinoprop-1-en-1-yl)biphenyl-4-yl]oxy}propyl)piperidine], the values for the IC50 at CYP2D6 and at CYP3A4 were 79 µM and 5 µM, respectively.

Take `CC1CCCN1CCCOc1ccc([C@H]2CC[C@H](O)CC2)cc1` (stereo partly drawn) (as salt: oxalate) [Example 66, 1-{3-[trans-4-(4-hydroxycyclohexyl)phenoxy]propyl}-2-methylpyrrolidine]: the melting point came to 80 °C.

Turning to `OC1(c2ccc(OCCCN3CCCCC3)cc2)CCCC1` [Example 8, 1-{3-[4-(1-hydroxycyclopentyl)phenoxy]propyl}piperidine], the values for the IC50 at CYP2D6 and on CYP3A4 were above 100 µM and 20 µM, respectively. In data set [1], this molecule returned a Ki of 0.82 nM.

With `C[C@@H]1C[C@@H](C)CN(CCCOc2ccc(-c3cc[nH]n3)cc2)C1` (relative stereo) [Example 34, trans-3,5-dimethyl-1-{3-[4-(pyrazol-3-yl)phenoxy]propyl}piperidine], the half-inhibitory concentration (IC50) on CYP2D6 turned out to be 20 µM; at CYP3A4 (setting [2]), 10 µM.

Consider `C[C@H]1CCCN(CCCOc2ccc(-c3cc[n+](C)cc3)cc2)C1` [Example 57, 1-methyl-4-(4-{3-[(3S)-3-methylpiperidin-1-yl]propoxy}phenyl)pyridinium], for which the half-inhibitory concentration (IC50) at CYP2D6 and on CYP3A4 was above 10 µM throughout.
